# Assay results from publication PMC9765437, “Antibiotic Acyldepsipeptides Stimulate the Streptomyces Clp-ATPase/ClpP Complex for Accelerated Proteolysis” (mBio, 2022).
# Starred links: 1 amine or outer side, 2 acyl side, 3 side chain; linkers in the order of their positions; H or OH if unused. Positions of bridges follow the written chain, without caps; N, C: chain ends. Non-standard residues stand in square brackets, D forms with d. Residues, ends and D or L forms follow the SMILES beside them. *: point of attachment. Octatrienoyl(2E,4E,6E) = C/C=C/C=C/C=C/C(=O)*; Pro(4R-Me) = C[C@H]1CN[C@H](C(=O)O)C1; AMC = Cc1cc(=O)oc2cc(N*)ccc12; Suc = O=C(CCC(=O)[*:2])[*:1]; NMeA = CN[C@@H](C)C(=O)O
# T1: ClpP1 (Streptomyces hawaiiensis, UniProt A0A6G5RDH7)
# T1 construct: gene clpP; full-length unprocessed, untagged, expressed in E. coli SG1146a (clpP deletion), anion exchange; ADEP-induced processing between G24 and P25
# T1 sequence (A0A6G5RDH7 1-219): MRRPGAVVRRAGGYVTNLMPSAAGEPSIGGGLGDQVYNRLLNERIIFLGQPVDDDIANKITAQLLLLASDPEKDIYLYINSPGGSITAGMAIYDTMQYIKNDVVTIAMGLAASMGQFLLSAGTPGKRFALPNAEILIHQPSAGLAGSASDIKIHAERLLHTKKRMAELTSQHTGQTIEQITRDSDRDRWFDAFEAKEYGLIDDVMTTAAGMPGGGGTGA
# B1: ClpP2 of Streptomyces hawaiiensis NRRL 15010, C-terminally His6-tagged (enzyme, UniProt A0A5B9BIX9 1-235, looked up)
# chain: MNQFPGSGIYDRMHAVQDMSASQGRYTGPQAESRYIIPRFVERTSQGIREYDPYAKLFEERVIFLGVQIDDASANDVMAQLLCLESMDPDRDISVYINSPGGSFTALTAIYDTMQYVKPDVQTVCMGQAASAAAVLLAAGTPGKRMALPNARVLIHQPYSETGRGQVSDLEIAANEILRMRSQLEDMLAKHSTTPVEKIREDIERDKILTAEDALSYGLIDQVISTRKMDNSSLR
# notes: ClpP2, Clp protease proteolytic subunit 2 of Streptomyces hawaiiensis NRRL 15010, orf CEB94_14105 of GenBank CP021978.1; from the first start codon, unprocessed; also called ClpP2-His6; ClpP2His; source: E. coli SG1146a (ΔclpP), purified (Ni-NTA); also co-expressed with ClpP1 from pETDUET-1, in lysate; not shown: His6, C-terminal, kept
# B2: ClpP2 of Streptomyces hawaiiensis NRRL 15010, untagged (enzyme, UniProt A0A5B9BIX9 1-235, looked up)
# chain: B1 chain
# notes: ClpP2 of Streptomyces hawaiiensis NRRL 15010, orf CEB94_14105 of GenBank CP021978.1; unprocessed; calculated mass of the heptamer 182.2 kDa; also called native ClpP2; source: E. coli SG1146a (ΔclpP), purified (anion-exchange chromatography)
# Columns and labels:
# ClpP1 = target: T1, ClpP1; assay: fluorogenic peptidase assay; format: biochemical; details: with ADEP1 as activator; 100 μM substrate, pH 7.5, 30°C
# ClpP1P2 = target: T2, ClpP1P2 (Streptomyces hawaiiensis, UniProt A0A6G5RDH7); assay: peptidase activation assay, Suc-LY-AMC; format: biochemical; details: activator binding via ClpP1; 10 μM ADEP1, 4 μM total ClpP, pH 7.5, 30°C
# T2 construct: gene clpP; untagged full-length ClpP1 mixed with C-terminally His6-tagged full-length ClpP2, expressed in E. coli SG1146a; heterotetradecamer of two homoheptameric rings; with ATP-dependent Clp protease proteolytic subunit 2
# ClpC1 = target: T3, ClpC1 (Streptomyces hawaiiensis, UniProt A0A6G5RIJ6); details: 100 nM ATP, beta-casein, 30°C; ClpC1 alone and with ClpP1P2; unaffected by ADEP1
# T3 construct: gene CEB94_23085
# T3 sequence (A0A6G5RIJ6 1-841): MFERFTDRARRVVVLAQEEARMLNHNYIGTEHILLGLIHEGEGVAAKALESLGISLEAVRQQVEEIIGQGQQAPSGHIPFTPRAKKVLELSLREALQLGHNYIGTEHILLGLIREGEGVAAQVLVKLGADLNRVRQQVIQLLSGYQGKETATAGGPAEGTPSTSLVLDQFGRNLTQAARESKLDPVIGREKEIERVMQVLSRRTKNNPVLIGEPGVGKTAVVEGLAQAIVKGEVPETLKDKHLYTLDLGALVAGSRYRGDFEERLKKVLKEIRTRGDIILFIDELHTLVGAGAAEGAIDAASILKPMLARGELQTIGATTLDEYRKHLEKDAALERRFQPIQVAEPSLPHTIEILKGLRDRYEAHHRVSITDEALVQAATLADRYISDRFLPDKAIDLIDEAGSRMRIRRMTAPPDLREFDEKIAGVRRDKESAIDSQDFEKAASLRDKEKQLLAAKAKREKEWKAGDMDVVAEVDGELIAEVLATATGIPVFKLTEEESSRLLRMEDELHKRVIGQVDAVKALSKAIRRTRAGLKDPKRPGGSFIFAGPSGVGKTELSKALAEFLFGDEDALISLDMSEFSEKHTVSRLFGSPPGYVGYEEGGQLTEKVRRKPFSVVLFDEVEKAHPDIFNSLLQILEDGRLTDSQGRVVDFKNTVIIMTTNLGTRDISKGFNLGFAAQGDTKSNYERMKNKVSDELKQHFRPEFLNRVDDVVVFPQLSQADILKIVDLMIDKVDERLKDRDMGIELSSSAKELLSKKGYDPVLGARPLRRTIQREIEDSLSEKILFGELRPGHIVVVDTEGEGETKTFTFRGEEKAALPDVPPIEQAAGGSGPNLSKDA
# [1] = target: the molecule itself; assay: native gel or EMSA; native PAGE without cross-linker, with ADEP1: ClpP1 and ClpP2 (10 μM each) with 60 μM or 25 μM ADEP1 (ClpP:ADEP1 1:3 or 1:1.25), 3 h at 30°C; immunoblot with anti-ClpP1 or anti-6His
# [2] = target: the molecule itself; assay: SEC; Superdex 200 Increase 10/300 GL; 80 μM protein, DMSO (no ADEP1), 30 min at 30°C; buffer GF (50 mM HEPES-KOH, 150 mM KCl, 20 mM MgCl2, 10% glycerol, 1 mM DTT, pH 7.5)
molecule,measurement,setting,value
Cc1cc(=O)oc2cc(NC(=O)[C@H](Cc3ccc(O)cc3)NC(=O)[C@H](CC(C)C)NC(=O)CCC(=O)O)ccc12 [Suc-LY-AMC] (Suc-Leu-Tyr-{AMC}),fluorogenic peptidase assay,ClpP1,ADEP1 clearly induced the hydrolysis of Suc-LY-AMC by either ClpP1 alone
"C/C=C/C=C/C=C/C(=O)N[C@@H](Cc1ccccc1)C(=O)N[C@H]1COC(=O)[C@@H]2C[C@@H](C)CN2C(=O)[C@H](C)NC(=O)[C@H](C)N(C)C(=O)[C@@H]2CCCN2C1=O [ADEP1] ({Octatrienoyl(2E,4E,6E)}-FSP[NMeA]A[Pro(4R-Me)]; ester 2-C)","peptidase activation assay, Suc-LY-AMC",ClpP1P2,ADEP1 clearly induced the hydrolysis of Suc-LY-AMC by either ClpP1 alone or by the mixed complex
Nc1ncnc2c1ncn2[C@@H]1O[C@H](COP(=O)(O)OP(=O)(O)OP(=O)(O)O)[C@@H](O)[C@H]1O [ATP],ADP-Glo ATP turnover assay,ClpC1,directly measured the turnover of ATP to ADP by ClpC1 in casein degradation assays
B1,stoichiometry N,[1],7
B2,stoichiometry N,[2],7
